Assay results: article PMC12401824, “Studies on the impact of modifications at the Gln-Trp site in RM2-based GRPR ligands” (EJNMMI Research, 2025)
Read-outs that look alike come from different tables or passages of the source. Starred links: 1 amine or outer side, 2 acyl side, 3 side chain; linkers in the order of their positions; H or OH if unused. Non-standard residues stand in square brackets, D forms with d. Residues, ends and D or L forms follow the SMILES beside them. *: point of attachment. X2 = O=C(O)CN1CCN(CC(=O)O)CCN(CC(=O)NCc2ccc(NC(=O)COCC(=O)*)cc2)CCN(CC(=O)O)CC1; DOTA = O=C(O)CN1CCN(CC(=O)O)CCN(CC(=O)*)CCN(CC(=O)O)CC1; NODAGA = O=C(O)CN1CCN(CC(=O)O)CCN(C(CCC(=O)*)C(=O)O)CC1; NOTA = O=C(O)CN1CCN(CC(=O)O)CCN(CC(=O)*)CC1; Sta = CC(C)C[C@H](N)[C@@H](O)CC(=O)O; Bta = N[C@@H](Cc1csc2ccccc12)C(=O)O; X1 = O=C(CN1CCC(N[*:1])CC1)[*:2]; NHCH(iBu)2 = CC(C)CC(CC(C)C)N*; hSer = N[C@@H](CCO)C(=O)O

Columns and labels:
[1] = Metabolic stability in vitro in human serum (37 °C, 72 ± 2 h); assay type: in vitro ADME; settings: ^177Lu-labeled NeoB and UL analogs, n = 3
Procedure: Metabolic stability in vitro was determined applying a procedure published by Linder et al. that was slightly modified. Immediately after labeling, human serum (200 µL) was added to the labeling solution (~ 30 µL) and the mixture was incubated at 37 °C for 72 ± 2 h. Proteins were precipitated by treatment with ice-cold ethanol (150 µL) and ice-cold acetonitrile (450 µL), followed by centrifugation at 13,000 rpm for 5 min. The supernatants were decanted and further analyzed using radio RP-HPLC.

GRPR = target: T1, GRPR (Homo sapiens, UniProt P30550); assay: GRPR affinity (IC50), competitive binding on PC-3 cells vs [3-[^125I]I-D-Tyr^6]MJ9; settings: 2 h, rt
T1 construct: host or cells: PC-3 cells
T1 sequence (P30550 whole entry): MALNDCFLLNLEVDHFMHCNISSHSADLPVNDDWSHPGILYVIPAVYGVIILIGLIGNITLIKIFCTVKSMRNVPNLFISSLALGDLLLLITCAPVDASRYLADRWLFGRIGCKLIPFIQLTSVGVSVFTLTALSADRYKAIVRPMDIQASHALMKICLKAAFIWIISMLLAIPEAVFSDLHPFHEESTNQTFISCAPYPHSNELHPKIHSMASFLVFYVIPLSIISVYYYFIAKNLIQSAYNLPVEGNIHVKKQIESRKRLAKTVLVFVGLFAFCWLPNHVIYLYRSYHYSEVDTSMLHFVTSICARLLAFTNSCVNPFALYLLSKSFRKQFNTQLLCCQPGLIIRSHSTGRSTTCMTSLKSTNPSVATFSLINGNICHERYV
Procedure: IC50 values of all compounds were determined according to a previously published procedure. Detailed information on culturing PC-3 cells and on the execution of IC50 studies is provided in the supplementary materials. In brief, competitive binding studies were performed in triplicate on PC-3 cells (1.5 × 10^5 cells in 1 mL/well) after incubation at room temperature for 2 h, using [3-[^125I]I-D-Tyr^6]MJ9 (0.2 nM/well) as radiolabeled reference (n = 3).
After removal of the culture medium, the cells were washed once with 500 µL of HBSS (Hank’s balanced salt solution, Biochrom GmbH, Berlin, Germany, with addition of 1% bovine serum albumin (BSA, v/v)) and left in 200 µL HBSS (1% BSA, v/v) for 9 min at rt for equilibration. Next, 25 µL per well of solutions, containing either HBSS (1% BSA, v/v) as control or the respective compound in increasing concentration (10^-10 M – 10^-4 M in HBSS (1% BSA, v/v)), were added with subsequent addition of 25 µL of [3-[^125I]I-D-Tyr^6]MJ9 (2.0 nm) in HBSS (1% BSA, v/v).
All experiments were performed in triplicate for each concentration. After 2 h incubation at rt, the experiment was terminated by removal of the medium and consecutive rinsing with 300 µL of HBSS (1% BSA, v/v). The media of both steps were combined in one fraction and represent the amount of free radiolabeled reference. Afterwards, the cells were lysed with 300 µL of 1 M NaOH for at least 15 min and united with the 300 µL NaOH of the following washing step. Quantification of bound and free radiolabeled reference was accomplished in a γ-counter. IC50 determination for each conjugate was repeated twice.

[2] = Cu-complexed, n = 3, read-out: IC50 (nM), Cu-labeled
[3] = Ga-complexed, n = 3, read-out: IC50 (nM), Ga-labeled

| Structure (SMILES) | Percentage of intact compound in human serum [1] [%] | IC50 (GRPR; [2]) [nM] | IC50 (GRPR; [3]) [nM] |
| --- | --- | --- | --- |
| CC(C)CC(CC(C)C)NC(=O)[C@H](Cc1c[nH]cn1)NC(=O)CNC(=O)[C@@H](NC(=O)[C@H](C)NC(=O)[C@H](Cc1c[nH]c2ccccc12)NC(=O)[C@H](CCO)NC(=O)[C@@H](Cc1ccccc1)NC(=O)COCC(=O)Nc1ccc(CNC(=O)CN2CCN(CC(=O)O)CCN(CC(=O)O)CCN(CC(=O)O)CC2)cc1)C(C)C [[Hse^7]NeoB] (X2-[dF][hSer]WAVGH-{NHCH(iBu)2}; N-terminus and C-terminus assumed) | 57.4 ± 2.1 | – | – |
| CC(C)CC(CC(C)C)NC(=O)[C@H](Cc1cnc[nH]1)NC(=O)CNC(=O)[C@@H](NC(=O)[C@H](C)NC(=O)[C@H](Cc1c[nH]c2ccccc12)NC(=O)[C@H](CCC(N)=O)NC(=O)[C@@H](Cc1ccccc1)NC(=O)COCC(=O)Nc1ccc(CNC(=O)CN2CCN(CC(=O)O)CCN(CC(=O)O)CCN(CC(=O)O)CC2)cc1)C(C)C [NeoB, reference compound] | 60.8 ± 1.2 | – | – |
| CC(C)CC(CC(C)C)NC(=O)[C@H](Cc1c[nH]cn1)NC(=O)CNC(=O)[C@@H](NC(=O)[C@H](C)NC(=O)[C@H](Cc1csc2ccccc12)NC(=O)[C@H](CCC(N)=O)NC(=O)[C@@H](Cc1ccccc1)NC(=O)COCC(=O)Nc1ccc(CNC(=O)CN2CCN(CC(=O)O)CCN(CC(=O)O)CCN(CC(=O)O)CC2)cc1)C(C)C [[Bta^8]NeoB] (X2-[dF]Q[Bta]AVGH-{NHCH(iBu)2}; N-terminus and C-terminus assumed) | 36.2 ± 2.6 | – | – |
| CC(C)C[C@H](NC(=O)C[C@H](O)[C@H](CC(C)C)NC(=O)[C@H](Cc1c[nH]cn1)NC(=O)CNC(=O)[C@@H](NC(=O)[C@H](C)NC(=O)[C@H](Cc1c[nH]c2ccccc12)NC(=O)[C@H](CCO)NC(=O)[C@@H](Cc1ccccc1)NC(=O)CN1CCC(NC(=O)CN2CCN(CC(=O)O)CCN(CC(=O)O)CCN(CC(=O)O)CC2)CC1)C(C)C)C(N)=O [[Hse^7]RM2] ({DOTA}-[X1][dF][hSer]WAVGH[Sta]L-NH2) | – | 33 ± 2.7 | 7.7 ± 0.7 |
| CC(C)C[C@H](NC(=O)C[C@H](O)[C@H](CC(C)C)NC(=O)[C@H](Cc1c[nH]cn1)NC(=O)CNC(=O)[C@@H](NC(=O)[C@H](C)NC(=O)[C@H](Cc1c[nH]c2ccccc12)NC(=O)[C@H](CCO)NC(=O)[C@@H](Cc1ccccc1)NC(=O)CN1CCC(NC(=O)CN2CCN(CC(=O)O)CCN(CC(=O)O)CC2)CC1)C(C)C)C(N)=O [NOTA-[des-DOTA, Hse^7]RM2] ({NOTA}-[X1][dF][hSer]WAVGH[Sta]L-NH2) | – | 14.2 ± 2.7 | 8.4 ± 1 |
| CC(C)C[C@H](NC(=O)C[C@H](O)[C@H](CC(C)C)NC(=O)[C@H](Cc1c[nH]cn1)NC(=O)CNC(=O)[C@@H](NC(=O)[C@H](C)NC(=O)[C@H](Cc1csc2ccccc12)NC(=O)[C@H](CCC(N)=O)NC(=O)[C@@H](Cc1ccccc1)NC(=O)CN1CCC(NC(=O)CN2CCN(CC(=O)O)CCN(CC(=O)O)CCN(CC(=O)O)CC2)CC1)C(C)C)C(N)=O [[Bta^8]RM2] ({DOTA}-[X1][dF]Q[Bta]AVGH[Sta]L-NH2) | – | 4.2 ± 0.6 | 2.3 ± 0.1 |
| CC(C)CC(CC(C)C)NC(=O)[C@H](Cc1c[nH]cn1)NC(=O)CNC(=O)[C@@H](NC(=O)[C@H](C)NC(=O)[C@](C)(Cc1c[nH]c2ccccc12)NC(=O)[C@H](CCC(N)=O)NC(=O)[C@@H](Cc1ccccc1)NC(=O)COCC(=O)Nc1ccc(CNC(=O)CN2CCN(CC(=O)O)CCN(CC(=O)O)CCN(CC(=O)O)CC2)cc1)C(C)C [[α-Me-Trp^8]NeoB] | 70.7 ± 2.8 | – | – |
| CC(C)C[C@H](NC(=O)C[C@H](O)[C@H](CC(C)C)NC(=O)[C@H](Cc1c[nH]cn1)NC(=O)CNC(=O)[C@@H](NC(=O)[C@H](C)NC(=O)[C@H](Cc1c[nH]c2ccccc12)NC(=O)[C@H](CCO)NC(=O)[C@@H](Cc1ccccc1)NC(=O)CN1CCC(NC(=O)CCC(C(=O)O)N2CCN(CC(=O)O)CCN(CC(=O)O)CC2)CC1)C(C)C)C(N)=O (stereo partly drawn) [NODAGA-[des-DOTA, Hse^7]RM2] ({NODAGA}-[X1][dF][hSer]WAVGH[Sta]L-NH2) | – | 11.8 ± 2.1 | 7.2 ± 0.7 |
| CC(C)C[C@H](NC(=O)C[C@H](O)[C@H](CC(C)C)NC(=O)[C@H](Cc1c[nH]cn1)NC(=O)CNC(=O)[C@@H](NC(=O)[C@H](C)NC(=O)[C@H](Cc1csc2ccccc12)NC(=O)[C@H](CCC(N)=O)NC(=O)[C@@H](Cc1ccccc1)NC(=O)CN1CCC(NC(=O)CN2CCN(CC(=O)O)CCN(CC(=O)O)CC2)CC1)C(C)C)C(N)=O [NOTA-[des-DOTA, Bta^8]RM2] ({NOTA}-[X1][dF]Q[Bta]AVGH[Sta]L-NH2) | – | 2.8 ± 0.2 | 1.8 |
